Test results reported in patent US20160262390A1, “FIELD APPLICATION OF SUGARS TO INCREASE CROP YIELD” (Minn-Dak Farmers Cooperative, priority 2015, published 2016).

Assays:
[1] = test system: sugarbeets; test: Pre-planting sugar application on sugarbeets, Hickson; assay type: in vivo, sugarbeet; conditions: for Recoverable Sugar Yield / Recoverable Sugar Yield Increase Compared to Check Average / Sugarbeet Yield: ND
Procedure: (§1) The field trials were conducted simultaneously in two different planting locations for each of the crops. One location was near the community of Foxhome in Wilkin County, Minnesota (hereafter referred to as “Foxhome”) while the second location was near the community of Hickson in Cass County, North Dakota (hereafter referred to as “Hickson”). The Foxhome and Hickson locations are on opposite sides of the Red River along the border of Minnesota and North Dakota and separated by a distance exceeding 40 miles. Generally, the Foxhome location has heavier clay loam soil conditions while Hickson has sandy loam soil conditions.
(§2) At each of the Foxhome and Hickson locations, a total of thirty two (32) treatments were conducted for each crop (sugarbeets, soybeans, corn, wheat). Each treatment was replicated four times arranged in a Randomized Complete Block (RCB) Design in the same field. Each replication consisted of a plot measuring twenty five (25) feet in length and eleven (11) feet in width. In selecting the particular seed types for evaluation, popular commercial varieties to the region were utilized. For the row crops (sugarbeets, soybeans, corn) each replication included a width of six (6) rows with twenty two (22) inch row spacing and having a row length of twenty five (25) feet. The wheat was planted in accordance with standard commercial practices. To reduce/eliminate any treatment impacts between adjacent plots for the crops, only the four (4) interior rows of each plot were treated and evaluated for row crops, while for wheat, only the interior 7.33 feet of each plot were treated and evaluated. With the exception of the treatment program applied to the individual plots, which will be discussed below, conventional commercial growing practices for each planting location were otherwise followed during the field trials. While the individual plots at the same location, Hickson or Foxhome, experienced essentially the same growing conditions throughout the season, there were various differences associated with localized precipitation, general growing conditions, soil classification and the like, which contributed to performance differences between the Hickson and Foxhome locations.
(§3) The treatment regimen at each location for each of the tested crops included two (2) untreated treatments (Treatments 31 and 32) in which no sugar was applied and constitute the control elements. […] Six (6) treatments (Treatments 13-18) included the liquid application of high fructose corn syrup (hereafter “HFCS”) at varying rates. Six treatments (Treatments 19-24) included the liquid application of dextrose (hereafter “LIQDEX”) at varying rates. Six (6) treatments (Treatments 25-30) included the application of powdered cellulose (hereafter “POWCEL”) at varying rates. For the sugar applied in a solid form, granulated or powdered, field application was conducted via conventional broadcast spreading. For the sugar applied in a liquid form, a liquid concentrate was mixed and diluted with water in a tank and a conventional sprayer was configured such that the liquid was sprayed so as to have the same sugar equivalent (measured in pounds/per acre) as the sugar in solid form. Regardless of whether the sugar was applied as a solid or liquid, the sugar was applied directly onto the soil before spring tillage, lightly worked into the ground and followed by planting of the crop seed in the treated ground. A summary of application rates for each plot treatments are contained in Table 7 below and were used consistently with each of the crops (sugarbeets, soybeans, corn, wheat).
To test the impact of pre-planting application rates and sugar source on sugarbeets, identical field trials using Crystal® brand ACH 260 sugarbeet seed were conducted at the Foxhome and Hickson locations. Planting of the sugarbeet seed and harvest of the sugarbeets were conducted on as close to the same dates as practical so as to have essentially the same length growing season. […]

[2] = test system: microflora that are present in the soil; test: Solvita Soil CO2-Burst test of pre-emergent soil samples, soybean trial in Hickson
Procedure: In an attempt to quantify this boost, soil samples were taken during some of the previously discussed trials. These samples were tested using a standard Solvita Soil CO2-Burst Test Kit to generate measurements associated with CO2 respiration which can be used as an indicator of active soil carbon, soil microbial biomass and the potential for nutrient release beneficial to crop production. Generally, the higher the measured levels of CO2, the more advantageous the soil is for crop production.
The results of the CO2-Burst Testing are summarized in Table 17 below (using the replication designations from Table 7): […]

[3] = test system: corn; test: Pre-planting sugar application on corn, Hickson; assay type: in vivo; conditions: for Yield / Yield Increase Compared to Check Average: ND
Procedure: as §1, §2, §3
To test the impact of pre-planting application rates and sugar source on corn, identical field trials using Peterson Farms brand corn seed were conducted at the Foxhome and Hickson locations. Planting of the corn seed and harvest of the corn were conducted on the same dates so as to have essentially the same growing season. […]

[4] = test system: wheat; test: Pre-planting sugar application on wheat, Hickson; assay type: in vivo; conditions: ND
Procedure: as §1, §2, §3
(§4) To test the impact of pre-planting application rates and sugar source on wheat, identical field trials using Westbred Mayville wheat seed were conducted at the Foxhome and Hickson locations. Planting of the wheat seed and harvest of the wheat were conducted on the same dates so as to have essentially the same growing season. […]

[5] = test system: wheat; test: Pre-planting sugar application on wheat, Foxhome; assay type: in vivo; conditions: for Yield / Yield Increase Compared to Check Average: MN
Procedure: as §1, §2, §3, §4

[6] = six rates (25-250 pounds/Acre) per sugar, thirty in all

SMILES: OC[C@H]1O[C@@](CO)(O[C@H]2O[C@H](CO)[C@@H](O)[C@H](O)[C@H]2O)[C@@H](O)[C@@H]1O [LIQSUC, sucrose]
- Recoverable Sugar Yield ([1]; pre-planting 25 pounds/Acre): 9363 Pounds/Acre
- Recoverable Sugar Yield Increase Compared to Check Average ([1]; pre-planting 25 pounds/Acre): −4.55%
- Sugarbeet Yield ([1]; pre-planting 25 pounds/Acre): 28.83 Tons/Acre
- Recoverable Sugar Yield ([1]; pre-planting 50 pounds/Acre): 10217 Pounds/Acre
- Recoverable Sugar Yield Increase Compared to Check Average ([1]; pre-planting 50 pounds/Acre): 4.16%
- Sugarbeet Yield ([1]; pre-planting 50 pounds/Acre): 32.05 Tons/Acre
- Recoverable Sugar Yield ([1]; pre-planting 100 pounds/Acre): 9216 Pounds/Acre
- Recoverable Sugar Yield Increase Compared to Check Average ([1]; pre-planting 100 pounds/Acre): −6.05%
- Sugarbeet Yield ([1]; pre-planting 100 pounds/Acre): 28.83 Tons/Acre
- Recoverable Sugar Yield ([1]; pre-planting 150 pounds/Acre): 9089 Pounds/Acre
- Recoverable Sugar Yield Increase Compared to Check Average ([1]; pre-planting 150 pounds/Acre): −7.34%
- Sugarbeet Yield ([1]; pre-planting 150 pounds/Acre): 31.95 Tons/Acre
- Recoverable Sugar Yield ([1]; pre-planting 200 pounds/Acre): 9998 Pounds/Acre
- Recoverable Sugar Yield Increase Compared to Check Average ([1]; pre-planting 200 pounds/Acre): 1.93%
- Sugarbeet Yield ([1]; pre-planting 200 pounds/Acre): 32.35 Tons/Acre
- Recoverable Sugar Yield ([1]; pre-planting 250 pounds/Acre): 9627 Pounds/Acre
- Recoverable Sugar Yield Increase Compared to Check Average ([1]; pre-planting 250 pounds/Acre): −1.86%
- Sugarbeet Yield ([1]; pre-planting 250 pounds/Acre): 32.29 Tons/Acre
- number of treatments showing negative yield benefits compared to check average ([1]; six rates per sugar): four of the six
- CO2 Burst ppm ([2]; sugar amount 50 pounds/acre): 49 ppm
- CO2 Increase as Compared to Check Average ([2]; sugar amount 50 pounds/acre): 7.69%
- CO2 Burst ppm ([2]; sugar amount 150 pounds/acre): 45 ppm
- CO2 Increase as Compared to Check Average ([2]; sugar amount 150 pounds/acre): −1.10%
- CO2 Burst ppm ([2]; sugar amount 250 pounds/acre): 55 ppm
- CO2 Increase as Compared to Check Average ([2]; sugar amount 250 pounds/acre): 20.88%
- Yield ([3]; pre-planting 25 pounds/Acre): 163.69 Bushels/Acre
- Yield Increase Compared to Check Average ([3]; pre-planting 25 pounds/Acre): 5.93%
- Yield ([3]; pre-planting 50 pounds/Acre): 162.57 Bushels/Acre
- Yield Increase Compared to Check Average ([3]; pre-planting 50 pounds/Acre): 5.21%
- Yield ([3]; pre-planting 100 pounds/Acre): 160.94 Bushels/Acre
- Yield Increase Compared to Check Average ([3]; pre-planting 100 pounds/Acre): 4.15%
- Yield ([3]; pre-planting 150 pounds/Acre): 165.35 Bushels/Acre
- Yield Increase Compared to Check Average ([3]; pre-planting 150 pounds/Acre): 7.01%
- Yield ([3]; pre-planting 200 pounds/Acre): 164.24 Bushels/Acre
- Yield Increase Compared to Check Average ([3]; pre-planting 200 pounds/Acre): 6.29%
- Yield ([3]; pre-planting 250 pounds/Acre): 166.53 Bushels/Acre
- Yield Increase Compared to Check Average ([3]; pre-planting 250 pounds/Acre): 7.77%
- number of treatments showing yield improvement compared to check average [3, 6]: each of their six
- Yield ([4]; pre-planting 25 pounds/Acre): 47.09 Bushels/Acre
- Yield Increase Compared to Check ([4]; pre-planting 25 pounds/Acre): −4.17%
- Yield ([4]; pre-planting 50 pounds/Acre): 53.46 Bushels/Acre
- Yield Increase Compared to Check ([4]; pre-planting 50 pounds/Acre): 8.79%
- Yield ([4]; pre-planting 100 pounds/Acre): 50.09 Bushels/Acre
- Yield Increase Compared to Check ([4]; pre-planting 100 pounds/Acre): 1.93%
- Yield ([4]; pre-planting 150 pounds/Acre): 46.03 Bushels/Acre
- Yield Increase Compared to Check ([4]; pre-planting 150 pounds/Acre): −6.33%
- Yield ([4]; pre-planting 200 pounds/Acre): 48.31 Bushels/Acre
- Yield Increase Compared to Check ([4]; pre-planting 200 pounds/Acre): −1.69%
- Yield ([4]; pre-planting 250 pounds/Acre): 50.24 Bushels/Acre
- Yield Increase Compared to Check ([4]; pre-planting 250 pounds/Acre): 2.24%
- Yield ([5]; pre-planting 25 pounds/Acre): 57.25 Bushels/Acre
- Yield Increase Compared to Check Average ([5]; pre-planting 25 pounds/Acre): −11.65%
- Yield ([5]; pre-planting 50 pounds/Acre): 68.06 Bushels/Acre
- Yield Increase Compared to Check Average ([5]; pre-planting 50 pounds/Acre): 5.03%
- Yield ([5]; pre-planting 100 pounds/Acre): 67.59 Bushels/Acre
- Yield Increase Compared to Check Average ([5]; pre-planting 100 pounds/Acre): 4.31%
- Yield ([5]; pre-planting 150 pounds/Acre): 65.84 Bushels/Acre
- Yield Increase Compared to Check Average ([5]; pre-planting 150 pounds/Acre): 1.60%
- Yield ([5]; pre-planting 200 pounds/Acre): 62.49 Bushels/Acre
- Yield Increase Compared to Check Average ([5]; pre-planting 200 pounds/Acre): −3.56%
- Yield ([5]; pre-planting 250 pounds/Acre): 63.20 Bushels/Acre
- Yield Increase Compared to Check Average ([5]; pre-planting 250 pounds/Acre): −2.47%
- number of treatments showing yield improvement compared to check average [5, 6]: three of the six
